Laboratory results as given in patent publication US11230541B2, “Heterocyclic compound” (Takeda Pharmaceutical Company Limited, priority 2017, dated 2022).

The compounds below were run against T1, NMDA receptor composed of four subunits including 2 sets of heterodimers of NR1 and NR2B (Homo sapiens, UniProt Q13224) (assay: NR2B Ca2+ influx assay (FLIPR, Fluo-4) in HEK293 cells expressing human GRIN1 and GRIN2B). Settings: HEK293, 10 μM final compound concentration, glutamic acid/glycine-induced Ca2+ influx, read-out: inhibitory rate (10 μM compound concentration).
T1 construct: host or cells: HEK293 (tetracycline-induced expression)
Format: cell-based
How it was run: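 Tetracycline-induced (2 h) HEK293 cells expressing human GRIN1/GRIN2B, Fluo-4-loaded, were preincubated 15 min at room temperature with compound at 10 μM final. FLIPR recorded Ca2+ influx every 3 s for 5 min after glutamate/glycine addition (30 μM in added buffer); inhibition from cumulative fluorescence relative to agonist-free wells.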

T1 sequence (Q13224 27-1484, other chains not shown): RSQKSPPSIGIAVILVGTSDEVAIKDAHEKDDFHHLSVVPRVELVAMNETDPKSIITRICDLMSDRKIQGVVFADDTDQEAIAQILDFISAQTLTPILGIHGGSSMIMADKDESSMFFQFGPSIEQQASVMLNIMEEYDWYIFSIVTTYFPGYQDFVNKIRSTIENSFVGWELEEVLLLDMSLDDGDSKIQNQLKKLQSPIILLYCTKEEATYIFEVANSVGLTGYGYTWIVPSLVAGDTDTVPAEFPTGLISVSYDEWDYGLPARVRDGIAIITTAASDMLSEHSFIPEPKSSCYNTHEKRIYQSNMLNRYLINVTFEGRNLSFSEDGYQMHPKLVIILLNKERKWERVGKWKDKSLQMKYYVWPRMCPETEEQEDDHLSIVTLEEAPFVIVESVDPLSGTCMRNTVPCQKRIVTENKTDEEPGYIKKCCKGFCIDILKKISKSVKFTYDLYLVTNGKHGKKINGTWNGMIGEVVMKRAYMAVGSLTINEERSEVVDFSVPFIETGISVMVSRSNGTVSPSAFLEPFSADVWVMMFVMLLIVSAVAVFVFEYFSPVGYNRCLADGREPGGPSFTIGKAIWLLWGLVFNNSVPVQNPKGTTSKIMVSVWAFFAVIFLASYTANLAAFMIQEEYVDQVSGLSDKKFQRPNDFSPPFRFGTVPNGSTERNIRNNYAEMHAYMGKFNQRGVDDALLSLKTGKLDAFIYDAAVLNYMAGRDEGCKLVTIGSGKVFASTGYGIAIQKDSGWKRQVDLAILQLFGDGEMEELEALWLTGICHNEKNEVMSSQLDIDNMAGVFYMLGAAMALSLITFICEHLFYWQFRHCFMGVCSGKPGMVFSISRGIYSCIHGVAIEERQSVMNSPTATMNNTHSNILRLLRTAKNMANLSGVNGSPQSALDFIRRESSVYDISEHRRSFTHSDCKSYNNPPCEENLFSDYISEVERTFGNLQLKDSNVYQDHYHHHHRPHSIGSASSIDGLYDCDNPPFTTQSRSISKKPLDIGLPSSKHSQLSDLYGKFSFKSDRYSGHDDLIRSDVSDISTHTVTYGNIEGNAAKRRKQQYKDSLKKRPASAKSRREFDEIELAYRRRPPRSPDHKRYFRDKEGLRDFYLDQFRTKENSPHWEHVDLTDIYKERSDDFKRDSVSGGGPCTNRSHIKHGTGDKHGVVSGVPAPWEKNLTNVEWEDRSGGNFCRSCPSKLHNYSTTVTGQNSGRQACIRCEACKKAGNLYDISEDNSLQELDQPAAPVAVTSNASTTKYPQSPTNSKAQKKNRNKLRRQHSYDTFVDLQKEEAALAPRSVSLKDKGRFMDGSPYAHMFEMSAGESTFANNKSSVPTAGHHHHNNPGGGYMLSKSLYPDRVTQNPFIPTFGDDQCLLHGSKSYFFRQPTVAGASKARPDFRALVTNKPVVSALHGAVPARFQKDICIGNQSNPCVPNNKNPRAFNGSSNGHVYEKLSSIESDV

Compound | inhibition at 10 µM [%]
O=C(NCc1c(C2CC2)ccc2[nH]ncc12)c1ccc(OC(F)(F)F)c(F)c1 [Example 88, N-((5-cyclopropyl-1H-indazol-4-yl)methyl)-3-fluoro-4-(trifluoro-methoxy)benzamide] | 93
O=C(NCc1c(C2CC2)ccc2[nH]ncc12)c1ccc(C(F)(F)F)c(Cl)c1 [Example 89, 3-chloro-N-((5-cyclo-propyl-1H-indazol-4-yl)methyl)-4-(trifluoro-methyl)benzamide] | 91
O=C(NCc1c(C2CC2)ccc2[nH]ncc12)c1cc(F)c(Cl)c(F)c1 [Example 90, 4-chloro-N-((5-cyclo-propyl-1H-indazol-4-yl)methyl)-3,5-difluorobenzamide] | 94
O=C(NCc1c(C2CC2)ccc2[nH]ncc12)c1cc(F)c(C(F)(F)F)c(F)c1 [Example 91, N-((5-cyclopropyl-1H-indazol-4-yl)methyl)-3,5-difluoro-4-(trifluoro-methyl)benzamide] | 94
O=C(NCc1c(C2CC2)ccc2[nH]ncc12)c1ccc(C(F)(F)F)c(F)c1 [Example 92, N-((5-cyclopropyl-1H-indazol-4-yl)methyl)-3-fluoro-4-(trifluoro-methyl)benzamide] | 93
Cc1ccc(C(=O)NCc2c(C3CC3)ccc3[nH]ncc23)cc1F [Example 93, N-((5-cyclopropyl-1H-indazol-4-yl)methyl)-3-fluoro-4-methyl-benzamide] | 94
COc1ccc(C(=O)NCc2c(C3CC3)ccc3[nH]ncc23)cc1F [Example 94, N-((5-cyclopropyl-1H-indazol-4-yl)methyl)-3-fluoro-4-methoxy-benzamide] | 93
O=C(NCc1c(C2CC2)ccc2[nH]ncc12)c1cc(F)c(F)c(Cl)c1 [Example 95, 3-chloro-N-((5-cyclopropyl-1H-indazol-4-yl)methyl)-4,5-difluorobenzamide] | 95
COc1ncc(C(=O)NCc2c(C3CC3)ccc3[nH]ncc23)cc1F [Example 96, N-((5-cyclopropyl-1H-indazol-4-yl)methyl)-fluoro-6-methoxy-nicotinamide] | 93
Cc1c(F)cc(C(=O)NCc2c(C3CC3)ccc3[nH]ncc23)cc1F [Example 97, N-((5-cyclopropyl-1H-indazol-4-yl)methyl)-3,5-difluoro-4-methylbenzamide] | 94
O=C(NCc1c(C2CC2)ccc2[nH]ncc12)c1ccc(C(F)F)cc1 [Example 98, N-((5-cyclopropyl-1H-indazol-4-yl)methyl)-4-(difluoromethyl)-benzamide] | 90
Cc1ccc(C(=O)NCc2c(C3CC3)ccc3[nH]ncc23)cc1 [Example 99, N-((5-cyclopropyl-1H-indazol-4-yl)methyl)-methylbenzamide] | 91
O=C(NCc1c(C2CC2)ccc2[nH]ncc12)c1ccc(OC(F)F)cc1 [Example 100, N-((5-cyclopropyl-1H-indazol-4-yl)methyl)-4-(difluoromethoxy)-benzamide] | 91
COc1ccc(C(=O)NCc2c(C3CC3)ccc3[nH]ncc23)cc1 [Example 101, N-((5-cyclopropyl-1H-indazol-4-yl)methyl)-methoxybenzamide] | 92
O=C(NCc1c(C2CC2)ccc2[nH]ncc12)c1ccc(Cl)cc1 [Example 102, 4-chloro-N-((5-cyclopropyl-1H-indazol-yl)methyl)benzamide] | 92
COc1ncc(C(=O)NCc2c(C3CC3)ccc3[nH]ncc23)cc1Cl [Example 103, 5-chloro-N-((5-cyclopropyl-1H-indazol-yl)methyl)-6-methoxynicotinamide] | 93
CCOc1ncc(C(=O)NCc2c(C3CC3)ccc3[nH]ncc23)cc1Cl [Example 104, 5-chloro-N-((5-cyclopropyl-1H-indazol-4-yl)methyl)-6-ethoxynicotinamide] | 90
O=C(NCc1c(C2CC2)ccc2[nH]ncc12)c1cnc(OC(F)F)c(F)c1 [Example 105, N-((5-cyclopropyl-1H-indazol-4-yl)methyl)-6-(difluoromethoxy)-5-fluoronicotinamide] | 93
O=C(NCc1c(C2CC2)ccc2[nH]ncc12)c1ccc(OC(F)(F)F)nc1 [Example 106, N-((5-cyclopropyl-1H-indazol-4-yl)-methyl)-6-(trifluoro-methoxy)nicotinamide] | 93
O=C(NCc1c(C2CC2)ccc2[nH]ncc12)c1ccc(OC(F)F)c(Cl)c1 [Example 107, 3-chloro-N-((5-cyclopropyl-1H-indazol-yl)methyl)-4-(difluoromethoxy)-benzamide] | 93
O=C(NCc1c(C2CC2)ccc2[nH]ncc12)c1cc(F)c(C(F)F)c(F)c1 [Example 108, N-((5-cyclopropyl-1H-indazol-4-yl)methyl)-(difluoromethyl)-3,5-dlfluorobenzamide] | 94

Compound | inhibition at 10 µM [%]
Cc1ccc2ncn(C)c2c1CNC(=O)c1ccc(OC(F)F)c(F)c1 [Example 109, 4-(difluoromethoxy)-N-((1,6-dimethyl-1H-benzimidazol-7-yl)methyl)-3-fluorobenzamide] | 92
COc1ccc2ncn(C)c2c1CNC(=O)c1csc(C(F)F)c1 [Example 110, 5-(difluoromethyl)-N-((6-methoxy-1-methyl-1H-benzimidazol-7-yl)methyl)thiophene-3-carboxamide] | 92
COc1ccc2ncn(C)c2c1CNC(=O)c1cc(F)c(OC)c(Cl)c1 [Example 111, 3-chloro-5-fluoro-4-methoxy-N-((6-methoxy-1-methyl-1H-benzimidazol-7-yl)methyl)benzamide] | 93
COc1ccc2ncn(C)c2c1CNC(=O)c1ccc(C(F)F)c(Cl)c1 [Example 112, 3-chloro-4-(difluoromethyl)-N-((6-methoxy-1-methyl-1H-benzimidazol-7-yl)methyl)benzamide] | 92
COc1ccc2ncn(C)c2c1CNC(=O)c1cnc(C(F)(F)F)c(Cl)c1 [Example 113, 5-chloro-N-((6-methoxy-1-methyl-1H-benzimidazol-7-yl)methyl)-6-(trifluoromethyl)-nicotinamide] | 90
COc1ccc2ncn(C)c2c1CNC(=O)c1ccc(C)cc1 [Example 114, N-((6-methoxy-1-methyl-1H-benzimidazol-7-yl)methyl)-4-methylbenzamide] | 87
COc1ccc2ncn(C)c2c1CNC(=O)c1csc(C2CC2)c1 [Example 115, 5-cyclopropyl-N-((6-methoxy-1-methyl-1H-benzimidazol-7-yl)methyl)thiophene-3-carboxamide] | 93
COc1ccc2ncn(C)c2c1CNC(=O)c1ccc(Cl)cc1 [Example 116, 4-chloro-N-((6-methoxy-1-methyl-1H-benzimidazol-7-yl)methyl)benzamide] | 90
COc1ccc2ncn(C)c2c1CNC(=O)c1ccc(C(F)(F)F)cc1 [Example 117, N-((6-methoxy-1-methyl-1H-benzimidazol-7-yl)methyl)-4-(trifluoromethyl)benzamide] | 90
O=C(NCc1c(C2CC2)ccc2[nH]ncc12)c1ccc(C(F)F)c(F)c1 [Example 118, N-((5-cyclopropyl-1H-indazol-4-yl)methyl)-4-(difluoromethyl)-3-fluorobenzamide] | 94
CCOc1ncc(C(=O)NCc2c(C3CC3)ccc3[nH]ncc23)cc1F [Example 119, N-((5-cyclopropyl-1H-indazol-4-yl)methyl)-6-ethoxy-5-fluoronicotinamide] | 94
O=C(NCc1c(C2CC2)ccc2[nH]ncc12)c1ccc(OC(F)F)c(F)c1 [Example 120, N-((5-cyclopropyl-1H-indazol-4-yl)methyl)-4-(difluoromethoxy)-3-fluorobenzamide] | 92
O=C(NCc1c(C2CC2)ccc2[nH]ncc12)c1cnc(OC(F)F)c(Cl)c1 [Example 121, 5-chloro-N-((5-cyclopropyl-1H-indazol-4-yl)methyl)-6-(difluoromethoxy)-nicotinamide] | 91
CCc1ccc(C(=O)NCc2c(OC)ccc3ncn(C)c23)s1 [Example 122, 5-ethyl-N-((6-methoxy-1-methyl-1H-benzimidazol-7-yl)methyl)thiophene-2-carboxamide] | 90
COc1ccc2ncn(C)c2c1CNC(=O)c1ccc(C(F)F)cc1 [Example 123, 4-(difluoromethyl)-N-((6-methoxy-1-methyl-1H-benzimidazol-7-yl)methyl)benzamide] | 88
COc1ccc2ncn(C)c2c1CNC(=O)c1ccc(C(F)F)c(F)c1 [Example 124, 4-(difluoromethyl)-3-fluoro-N-((6-methoxy-1-methyl-1H-benzimidazol-7-yl)methyl)benzamide] | 90
CCOc1ccc2ncn(C)c2c1CNC(=O)c1csc(C(F)F)c1 [Example 125, 5-(difluoromethyl)-N-((6-ethoxy-1-methyl-1H-benzimidazol-7-yl)methyl)thiophene-3-carboxamide] | 92
CCOc1ccc2ncn(C)c2c1CNC(=O)c1ccc(C(F)F)s1 [Example 126, 5-(difluoromethyl)-N-((6-ethoxy-1-methyl-1H-benzimidazol-7-yl)methyl)thiophene-2-carboxamide] | 88
CCOc1ccc2ncn(C)c2c1CNC(=O)c1cc(F)c(OC)c(F)c1 [Example 127, N-((6-ethoxy-1-methyl-1H-benzimidazol-7-yl)methyl)-3,5-difluoro-4-methoxybenzamide] | 92
CCOc1ccc2ncn(C)c2c1CNC(=O)c1ccc(C(F)(F)F)cc1 [Example 128, N-((6-ethoxy-1-methyl-1H-benzimidazol-7-yl)methyl)-4-(trifluoromethyl)-benzamide] | 91
